Laboratory results: the Kinase Knowledgebase extract (Sharma et al. 2016)

Molecular target: MAPK14 (human) (UniProt Q16539)
Experiment: Inhibition of LPS Stimulated TNF Production by U937 Cells
Settings: for inhibition: concentration not given here

Sequence of MAPK14 (human) (Q16539 whole entry, looked up): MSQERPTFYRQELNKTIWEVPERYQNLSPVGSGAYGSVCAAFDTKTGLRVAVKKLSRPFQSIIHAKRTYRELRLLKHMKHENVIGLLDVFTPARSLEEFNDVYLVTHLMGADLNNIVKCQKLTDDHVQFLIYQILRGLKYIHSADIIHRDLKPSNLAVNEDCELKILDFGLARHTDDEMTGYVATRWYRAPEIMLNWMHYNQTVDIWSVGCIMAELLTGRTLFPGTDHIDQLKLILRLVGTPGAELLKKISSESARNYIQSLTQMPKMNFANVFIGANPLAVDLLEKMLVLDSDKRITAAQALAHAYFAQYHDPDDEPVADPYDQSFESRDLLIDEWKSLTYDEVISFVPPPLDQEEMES

Structure (SMILES)	inhibition	IC50
O=C(NCc1[nH]nc(-c2ccc(F)cc2)c1-c1ccncc1)c1ccncc1	3%	
CN(C)c1cccc2c(S(=O)(=O)NCCc3[nH]nc(-c4ccc(F)cc4)c3-c3ccncc3)cccc12	28%	
Cc1ccc(C)c(S(=O)(=O)NCCCc2[nH]nc(-c3ccc(F)cc3)c2-c2ccncc2)c1	36%	
Cc1onc(-c2c(F)cccc2Cl)c1C(=O)NCc1[nH]nc(-c2ccc(F)cc2)c1-c1ccncc1		> 1000 nM
C[C@H](NC(=O)c1ccc(Cl)cc1Cl)c1[nH]nc(-c2ccc(F)cc2)c1-c1ccncc1	28%	
O=C(NCc1[nH]nc(-c2ccc(F)cc2)c1-c1ccncc1)c1cc(F)cc(F)c1	34%	
Cc1ccc(S(=O)(=O)N[C@@H](Cc2ccccc2)C(=O)N[C@@H](C)c2[nH]nc(-c3ccc(F)cc3)c2-c2ccncc2)cc1	31%	
COc1ccc(C)cc1S(=O)(=O)N[C@H](C)c1[nH]nc(-c2ccc(F)cc2)c1-c1ccncc1	92%	
COc1ccc(OC)c(S(=O)(=O)N2CCC(c3[nH]nc(-c4ccc(F)cc4)c3-c3ccncc3)CC2)c1	24%	
C[C@H](NS(=O)(=O)/C=C/c1ccccc1)c1[nH]nc(-c2ccc(F)cc2)c1-c1ccncc1		590 nM
COc1ccc(Cl)cc1S(=O)(=O)N[C@H](C)c1[nH]nc(-c2ccc(F)cc2)c1-c1ccncc1	87%	
CCCCS(=O)(=O)NCc1[nH]nc(-c2ccc(F)cc2)c1-c1ccncc1		5000 nM
O=C(NCc1[nH]nc(-c2ccc(F)cc2)c1-c1ccncc1)Nc1cc(Cl)cc(Cl)c1	20%	
Cn1cnc(S(=O)(=O)N2CCC(c3[nH]nc(-c4ccc(F)cc4)c3-c3ccncc3)CC2)c1	28%	
CCOC(=O)C(CC(C)C)NC(=O)NCc1[nH]nc(-c2ccc(F)cc2)c1-c1ccncc1 (stereo not given)	9%	
O=C(CCc1ccccc1)NCc1[nH]nc(-c2ccc(F)cc2)c1-c1ccncc1	21%	
Cn1cc(-c2ccncc2)c(-c2cccc(F)c2)n1		462 nM
O=C(NCc1[nH]nc(-c2ccc(F)cc2)c1-c1ccncc1)c1ccc(F)cc1		2760 nM
CNC(=O)CC[C@H](NC(=O)COC)c1[nH]nc(-c2ccc(F)cc2)c1-c1ccncc1		> 1000 nM
C[C@@H](NC(=O)c1ccc(F)cc1F)c1[nH]nc(-c2ccc(F)cc2)c1-c1ccncc1	77%	
COC(=O)CCC(=O)NCc1[nH]nc(-c2ccc(F)cc2)c1-c1ccncc1		10000 nM
Cc1cc(C)c(NC(=O)NCc2[nH]nc(-c3ccc(F)cc3)c2-c2ccncc2)c(C)c1	25%	
O=C(NCc1[nH]nc(-c2ccc(F)cc2)c1-c1ccncc1)c1cccnc1	16%	

Structure (SMILES)	inhibition	IC50
C[C@@H](NS(=O)(=O)c1ccc(Cl)cc1)c1[nH]nc(-c2ccc(F)cc2)c1-c1ccncc1	92%	
N#Cc1cc(-c2c[nH]nc2-c2ccc(F)cc2)ccn1		298 nM
O=C(c1ccccn1)N1CCC(c2[nH]nc(-c3ccc(F)cc3)c2-c2ccncc2)CC1		250 nM
C[C@H](NC(=O)c1ccc(F)c(C(F)(F)F)c1)c1[nH]nc(-c2ccc(F)cc2)c1-c1ccncc1	27%	
C[C@@H](NC(=O)C1CC1)c1[nH]nc(-c2ccc(F)cc2)c1-c1ccncc1	46%	
CC(C)C(=O)N[C@@H](C)c1[nH]nc(-c2ccc(F)cc2)c1-c1ccncc1		1010 nM
C[C@H](NS(C)(=O)=O)c1[nH]nc(-c2ccc(F)cc2)c1-c1ccncc1		1700 nM
C[C@H](NC(=O)Cc1cccs1)c1[nH]nc(-c2ccc(F)cc2)c1-c1ccncc1	28%	
C[C@@H](NS(=O)(=O)c1cccc2cccnc12)c1[nH]nc(-c2ccc(F)cc2)c1-c1ccncc1	71%	
O=C(NCc1[nH]nc(-c2ccc(F)cc2)c1-c1ccncc1)NC(=O)c1ccccc1	28%	
COc1ccc(S(=O)(=O)N[C@@H](C)c2[nH]nc(-c3ccc(F)cc3)c2-c2ccncc2)cc1OC	66%	
O=S(=O)(c1cccc(Cl)c1Cl)N1CCC(c2[nH]nc(-c3ccc(F)cc3)c2-c2ccncc2)CC1	22%	
O=S(=O)(NCc1[nH]nc(-c2ccc(F)cc2)c1-c1ccncc1)c1ccc(C(F)(F)F)cc1	60%	
CCOC(=O)c1cccc(NC(=O)NCc2[nH]nc(-c3ccc(F)cc3)c2-c2ccncc2)c1	14%	
C[C@H](NC(=O)Nc1cccc(F)c1)c1[nH]nc(-c2ccc(F)cc2)c1-c1ccncc1	22%	
Cc1c(Cl)cccc1S(=O)(=O)NCCc1[nH]nc(-c2ccc(F)cc2)c1-c1ccncc1	29%	
COc1ccc(C)cc1S(=O)(=O)NCc1[nH]nc(-c2ccc(F)cc2)c1-c1ccncc1		> 1000 nM
C[C@@H](NS(=O)(=O)c1cccc2cnccc12)c1[nH]nc(-c2ccc(F)cc2)c1-c1ccncc1	74%	
CC(C)c1ccc(S(=O)(=O)N[C@H](C)c2[nH]nc(-c3ccc(F)cc3)c2-c2ccncc2)cc1	80%	
Fc1ccc(-c2[nH]nc(NCCCN3CCOCC3)c2-c2ccncc2)cc1		90 nM
C#CCn1cc(-c2ccncc2)c(-c2ccc(F)cc2)n1		500 nM
Cc1c(-c2ccncc2)c(-c2ccc(F)cc2)nn1CC(=O)NCCCN1CCN(C)CC1	30%	
C[C@H](NC(=O)N1CCOCC1)c1[nH]nc(-c2ccc(F)cc2)c1-c1ccncc1	37%	

Structure (SMILES)	inhibition	IC50
C[C@H](NC(=O)c1cc(F)c(F)cc1F)c1[nH]nc(-c2ccc(F)cc2)c1-c1ccncc1	43%	
O=C(NCCc1[nH]nc(-c2ccc(F)cc2)c1-c1ccncc1)c1cccc(Cl)c1Cl	11%	
O=S(=O)(c1cccc(C(F)(F)F)c1)N1CCC(c2[nH]nc(-c3ccc(F)cc3)c2-c2ccncc2)CC1	10%	
Cc1ccccc1C(=O)NCCc1[nH]nc(-c2ccc(F)cc2)c1-c1ccncc1	9%	
Cc1n[nH]c(-c2ccc(C(F)(F)F)cc2)c1-c1ccncc1		522 nM
C[C@H](NS(=O)(=O)c1cccc2cnccc12)c1[nH]nc(-c2ccc(F)cc2)c1-c1ccncc1	75%	
O=C(N[C@H](Cc1ccccc1)c1[nH]nc(-c2ccc(F)cc2)c1-c1ccncc1)C1CC1		> 1000 nM
O=C(NCc1[nH]nc(-c2ccc(F)cc2)c1-c1ccncc1)c1ccc(C(F)(F)F)cc1	24%	
C[C@H](NC(=O)c1ccno1)c1[nH]nc(-c2ccc(F)cc2)c1-c1ccncc1	28%	
C[C@@H](NC(=O)N1CCOCC1)c1[nH]nc(-c2ccc(F)cc2)c1-c1ccncc1	30%	
COCC(=O)N[C@H](C)c1[nH]nc(-c2ccc(F)cc2)c1-c1ccncc1	46%	
O=S(=O)(NCc1[nH]nc(-c2ccc(F)cc2)c1-c1ccncc1)c1cccc2cnccc12	24%	
COc1ccc(OC)c(S(=O)(=O)N[C@H](C)c2[nH]nc(-c3ccc(F)cc3)c2-c2ccncc2)c1	81%	
C[C@@H](NC(=O)N(C)C)c1[nH]nc(-c2ccc(F)cc2)c1-c1ccncc1	27%	
Fc1ccc(-c2n[nH]cc2-c2ccnc(NC3CCN(Cc4ccccc4)CC3)c2)cc1		543 nM
COc1ccc(CC(=O)N[C@H](Cc2ccccc2)c2[nH]nc(-c3ccc(F)cc3)c2-c2ccncc2)cc1		> 1000 nM
O=C(N[C@H](Cc1ccccc1)c1[nH]nc(-c2ccc(F)cc2)c1-c1ccncc1)c1ccc(F)c(F)c1F		> 1000 nM
C[C@@H](NS(=O)(=O)c1ccc(Br)cc1)c1[nH]nc(-c2ccc(F)cc2)c1-c1ccncc1	89%	
Clc1ccc(-c2n[nH]cc2-c2ccnc(NCc3ccccn3)c2)cc1		166 nM
CNC(=O)CC[C@H](NC(=O)c1ccno1)c1[nH]nc(-c2ccc(F)cc2)c1-c1ccncc1		> 1000 nM
Cc1c(Cl)cccc1S(=O)(=O)N[C@@H](C)c1[nH]nc(-c2ccc(F)cc2)c1-c1ccncc1	54%	
O=S(=O)(NCc1[nH]nc(-c2ccc(F)cc2)c1-c1ccncc1)c1ccc(F)c(Cl)c1	78%	
O=C(NCc1[nH]nc(-c2ccc(F)cc2)c1-c1ccncc1)[C@H]1CCCN1C(=O)OCC1c2ccccc2-c2ccccc21	14%	

Structure (SMILES)	inhibition	IC50
Cc1ccc(S(=O)(=O)N[C@@H](Cc2ccccc2)C(=O)NCCCc2[nH]nc(-c3ccc(F)cc3)c2-c2ccncc2)cc1	36%	
CCCc1n[nH]c(-c2cccc(C)c2)c1-c1ccncc1		29 nM
CCS(=O)(=O)N[C@H](C)c1[nH]nc(-c2ccc(F)cc2)c1-c1ccncc1	48%	
Fc1ccc(-c2n[nH]cc2-c2ccnc(NCCN3CCOCC3)c2)cc1		539 nM
O=C(NCc1[nH]nc(-c2ccc(F)cc2)c1-c1ccncc1)c1c(F)ccc(F)c1F	36%	
COc1ccccc1C(=O)N[C@H](C)c1[nH]nc(-c2ccc(F)cc2)c1-c1ccncc1	23%	
CC(C)c1cc(C(C)C)c(C(=O)N[C@@H](C)c2[nH]nc(-c3ccc(F)cc3)c2-c2ccncc2)c(C(C)C)c1	42%	
C[C@H](NC(=O)c1cc(F)ccc1F)c1[nH]nc(-c2ccc(F)cc2)c1-c1ccncc1	44%	
CCS(=O)(=O)NCc1[nH]nc(-c2ccc(F)cc2)c1-c1ccncc1		5000 nM
C[C@H](NS(=O)(=O)Cc1ccccc1[N+](=O)[O-])c1[nH]nc(-c2ccc(F)cc2)c1-c1ccncc1	88%	
O=C(NCc1[nH]nc(-c2ccc(F)cc2)c1-c1ccncc1)c1cccc(OC(F)(F)F)c1	22%	
CS(=O)(=O)c1ccccc1S(=O)(=O)NCc1[nH]nc(-c2ccc(F)cc2)c1-c1ccncc1	23%	
COc1cccc(-c2[nH]nc(C)c2-c2ccncc2)c1		477 nM
C[C@H](NS(=O)(=O)c1ccc(Br)cc1)c1[nH]nc(-c2ccc(F)cc2)c1-c1ccncc1	87%	
C[C@@H](NC(=O)c1ccc(C(F)(F)F)cc1F)c1[nH]nc(-c2ccc(F)cc2)c1-c1ccncc1	48%	
C[C@H](NC(=O)N(C)C)c1[nH]nc(-c2ccc(F)cc2)c1-c1ccncc1	54%	
CSc1cccc(NC(=O)NCc2[nH]nc(-c3ccc(F)cc3)c2-c2ccncc2)c1	12%	
O=C(NCc1[nH]nc(-c2ccc(F)cc2)c1-c1ccncc1)[C@@H]1CCCN1C(=O)OCC1c2ccccc2-c2ccccc21	55%	
C[C@H](NC(=O)c1cc(F)cc(C(F)(F)F)c1)c1[nH]nc(-c2ccc(F)cc2)c1-c1ccncc1	36%	
O=C(C1CC1)N1CCC(c2[nH]nc(-c3ccc(F)cc3)c2-c2ccncc2)CC1		270 nM
COC(=O)NCc1[nH]nc(-c2ccc(F)cc2)c1-c1ccncc1	52%	
